# Reference: US10414767B2, “Deuterated quinazolinone compound and pharmaceutical composition comprising same” (Suzhou Zelgen Biopharmaceuticals Co., Ltd., priority 2014, dated 2019)
# Target: PI3Kδ kinase (Homo sapiens, UniProt O00329)
# Assay: In vitro pharmacodynamics evaluation to PI3K kinases
# Sequence of PI3Kδ kinase (O00329 whole entry): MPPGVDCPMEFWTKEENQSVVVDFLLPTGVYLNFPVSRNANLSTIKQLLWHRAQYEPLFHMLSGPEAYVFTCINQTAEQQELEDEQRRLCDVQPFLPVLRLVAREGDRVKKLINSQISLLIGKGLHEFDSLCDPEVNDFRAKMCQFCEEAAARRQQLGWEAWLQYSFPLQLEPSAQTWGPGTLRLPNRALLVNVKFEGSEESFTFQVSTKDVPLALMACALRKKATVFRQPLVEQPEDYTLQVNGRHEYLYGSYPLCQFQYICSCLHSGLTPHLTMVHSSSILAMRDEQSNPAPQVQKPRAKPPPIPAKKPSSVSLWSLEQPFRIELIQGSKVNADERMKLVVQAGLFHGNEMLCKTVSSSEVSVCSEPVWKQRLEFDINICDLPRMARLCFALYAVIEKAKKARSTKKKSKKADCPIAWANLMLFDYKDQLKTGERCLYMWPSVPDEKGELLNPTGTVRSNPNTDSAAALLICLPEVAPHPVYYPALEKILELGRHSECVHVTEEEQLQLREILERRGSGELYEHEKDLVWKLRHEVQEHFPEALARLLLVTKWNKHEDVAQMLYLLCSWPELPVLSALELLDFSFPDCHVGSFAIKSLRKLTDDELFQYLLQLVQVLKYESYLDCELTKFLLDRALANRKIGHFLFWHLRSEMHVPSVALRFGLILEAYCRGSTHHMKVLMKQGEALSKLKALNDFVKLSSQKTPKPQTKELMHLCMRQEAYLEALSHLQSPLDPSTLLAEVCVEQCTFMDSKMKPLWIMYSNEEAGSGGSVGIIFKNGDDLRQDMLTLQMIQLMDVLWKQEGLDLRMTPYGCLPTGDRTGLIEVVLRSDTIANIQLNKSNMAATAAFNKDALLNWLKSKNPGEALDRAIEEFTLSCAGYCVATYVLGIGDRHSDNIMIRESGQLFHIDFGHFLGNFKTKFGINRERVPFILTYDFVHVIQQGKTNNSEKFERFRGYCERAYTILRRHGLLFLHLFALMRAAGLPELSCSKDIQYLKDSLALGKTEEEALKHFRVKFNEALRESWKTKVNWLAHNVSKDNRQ
# Sequence of PI3Kδ kinase (P27986 whole entry partner): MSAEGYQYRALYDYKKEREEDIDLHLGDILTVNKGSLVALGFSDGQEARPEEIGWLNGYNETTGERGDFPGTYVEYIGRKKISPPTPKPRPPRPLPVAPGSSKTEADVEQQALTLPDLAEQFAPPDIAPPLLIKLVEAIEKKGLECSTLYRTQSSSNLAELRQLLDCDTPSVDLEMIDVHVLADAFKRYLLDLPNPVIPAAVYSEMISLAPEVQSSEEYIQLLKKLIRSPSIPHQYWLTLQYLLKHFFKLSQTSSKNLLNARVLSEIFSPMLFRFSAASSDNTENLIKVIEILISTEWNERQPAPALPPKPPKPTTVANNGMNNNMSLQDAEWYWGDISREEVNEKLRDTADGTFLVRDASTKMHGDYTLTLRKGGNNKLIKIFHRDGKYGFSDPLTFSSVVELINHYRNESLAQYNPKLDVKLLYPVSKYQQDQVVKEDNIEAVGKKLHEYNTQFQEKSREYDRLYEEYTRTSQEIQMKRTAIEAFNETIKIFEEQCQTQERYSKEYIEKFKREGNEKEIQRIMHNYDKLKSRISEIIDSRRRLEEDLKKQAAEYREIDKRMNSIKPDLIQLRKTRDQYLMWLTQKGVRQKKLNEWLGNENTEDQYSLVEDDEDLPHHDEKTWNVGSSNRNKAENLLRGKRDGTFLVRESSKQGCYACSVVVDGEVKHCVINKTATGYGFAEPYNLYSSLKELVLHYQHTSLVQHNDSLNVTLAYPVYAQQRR
row,Structure (SMILES),IC50
1,"[2H]C([2H])([2H])[C@]([2H])(Nc1ncnc2[nH]cnc12)c1nc2ccc(F)cc2c(=O)n1-c1ccccc1 [Example 9, (S)-2-(1-(9H-purin-6-yl-amino)-1,2,2,2-d4-ethyl)-6-fluoro-3-phenyl quinazoline-4(3H)-ketone]",< 20 nM
2,"[2H][C@@](C)(Nc1ncnc2[nH]cnc12)c1nc2ccc(F)cc2c(=O)n1-c1ccccc1 [Example 8, (S)-2-(1-(9H-purin-6-yl-amino)-1-d-ethyl)-6-fluoro-3-phenyl quinazoline-4(3H)-ketone]",< 20 nM
3,"[2H]C([2H])([2H])[C@H](Nc1ncnc2[nH]cnc12)c1nc2ccc(F)cc2c(=O)n1-c1ccccc1 [Example 10, (S)-2-(1-(9H-purin-6-yl-amino)-2,2,2-d3-ethyl)-6-fluoro-3-phenyl quinazoline-4(3H)-ketone]",< 20 nM
